# Read-outs that look alike come from different tables or passages of the source.
# Legend:
# DLD1 BRCA2 (−/−) cells = assay: DLD1 viability assay (CellTiter-Glo, 7 days), DLD1 BRCA2 (−/−); type: cell-based; settings: read-out: Viability IC50 (μM) DLD1 BRCA2 null
# Protocol: (§1) The seeding densities are pre-determined from the growth curve kinetics performed to ensure log linear phase of cell growth for these 2 cell lines. These assay plates are then placed in the incubator at 37° C., 5% CO2, relative humidity>90% for a few hours before addition of test compounds. Compounds are dispensed using the Tecan HPD300 or Echo based on the plate map in the appropriate wells of the 384-well plates. […] After addition of the test compounds, the plates are incubated at 37° C., 5% CO2, relative humidity>90% for 7 days. CellTiter-Glo (Promega Cat. No. G7573), ATP detection reagent is prepared according to manufacturer's specifications. Cell assay plates are removed from incubator and bring to room temperature (RT) by letting them sit at bench top for at least 15 min. Using the MultiDrop liquid handler or a multichannel pipette, 35 μL/well of CTG is added and the plates are then placed shakes for 5 seconds, RT. These plates are then incubated for 30 minutes in the dark at RT before measuring luminescence using Spectramax/Enspire/Ensight/Envision/PheraSTAR.
# DLD1 WT cells = assay: DLD1 viability assay (CellTiter-Glo, 7 days), DLD1 WT; type: cell-based; settings: Homo sapiens, DLD-1, 168 h
# Protocol: as §1
Compound,"IC50 (DLD1 BRCA2 (−/−) cells; Homo sapiens, DLD-1, 168 h) [µM]",IC50 (DLD1 WT cells) [µM],IC50 (DLD1 BRCA2 (−/−) cells) [µM]
"COc1cnc(Cl)cc1-c1cc(C)ncc1C(=O)Nc1nc2ncc(N3C[C@@H](C)OC[C@H]3C)nc2s1 [Example 409, 2′-chloro-N-(6-((2R,5R)-2,5-dimethylmorpholino)thiazolo [4,5-b]pyrazin-2-yl)-5′-methoxy-6-methyl-[4,4′-bipyridine]-3-carboxamide]",0.001 to 0.1,> 10,–
"COc1cnc(Cl)cc1-c1cc(C)ncc1C(=O)Nc1nc2ncc(N3CC[C@](C)(OC)[C@H](F)C3)nc2s1 (single isomer, unassigned) [Example 362, 2′-chloro-N-(6-((3R or S,4S or R)-3-fluoro-4-methoxy-4-methylpiperidin-1-yl)thiazolo[4,5-b]pyrazin-2-yl)-5′-methoxy-6-methyl-[4,4′-bipyridine]-3-carboxamide]",0.1 to 0.25,> 10,–
"COc1cnc(Cl)cc1-c1cc(C)ncc1C(=O)Nc1nc2ncc(N3CCC(O)C(F)(F)C3)nc2s1 (single isomer, unassigned) [Example 457, (S or R)-2′-chloro-N-(6-(3,3-difluoro-4-hydroxypiperidin-1-yl)thiazolo[4,5-b]pyrazin-2-yl)-5′-methoxy-6-methyl-[4,4′-bipyridine]-3-carboxamide]",–,> 10,0.1 to 0.25
"COc1cnc(Cl)cc1-c1cc(C)ncc1C(=O)Nc1nc2ncc(C3CCN(CC(F)(F)F)CC3)nc2s1 [Example 432, 2′-chloro-5′-methoxy-6-methyl-N-(6-(1-(2,2,2-trifluoroethyl)piperidin-4-yl)thiazolo[4,5-b]pyrazin-2-yl)-[4,4′-bipyridine]-3-carboxamide]",0.001 to 0.1,> 10,–
"COc1cnc(Cl)cc1-c1cc(C)ncc1C(=O)Nc1nc2ncc([C@@H]3CCN(CC(F)(F)F)C3)nc2s1 (single isomer, unassigned) [Example 365, (R or S)-2′-chloro-5′-methoxy-6-methyl-N-(6-(1-(2,2,2-trifluoroethyl)pyrrolidin-3-yl)thiazolo[4,5-b]pyrazin-2-yl)-[4,4′-bipyridine]-3-carboxamide]",0.001 to 0.1,> 10,–
"COc1cnc(Cl)cc1-c1cc(C)ncc1C(=O)Nc1nc2ncc(N3CC[C@](C)(O)[C@H](F)C3)nc2s1 (single isomer, unassigned) [Example 375, 2′-chloro-N-(6-((3R or S,4S or R)-3-fluoro-4-hydroxy-4-methylpiperidin-1-yl)thiazolo[4,5-b]pyrazin-2-yl)-5′-methoxy-6-methyl-[4,4′-bipyridine]-3-carboxamide]",0.001 to 0.1,> 10,–
"COc1cnc(Cl)cc1-c1cc(C2CC2)ncc1C(=O)Nc1nc2ncc(-c3ccnc(C)c3)nc2s1 [Example 445, 2′-chloro-6-cyclopropyl-5′-methoxy-N-(6-(2-methylpyridin-4-yl)thiazolo[4,5-b]pyrazin-2-yl)-[4,4′-bipyridine]-3-carboxamide]",0.001 to 0.1,> 10,–
"COc1cnc(Cl)cc1-c1cc(C)ncc1C(=O)Nc1nc2ncc(N3CCC4(CCCO4)CC3)nc2s1 [Example 459, N-(6-(1-oxa-8-azaspiro[4.5]decan-8-yl)thiazolo[4,5-b]pyrazin-2-yl)-2′-chloro-5′-methoxy-6-methyl-[4,4′-bipyridine]-3-carboxamide]",0.001 to 0.1,> 10,–
"COc1cnc(Cl)cc1-c1cc(C)ncc1C(=O)Nc1nc2ncc(N3CCC(OC(F)(F)F)CC3)nc2s1 [Example 489, 2′-chloro-5′-methoxy-6-methyl-N-(6-(4-(trifluoromethoxy)piperidin-1-yl)thiazolo[4,5-b]pyrazin-2-yl)-[4,4′-bipyridine]-3-carboxamide]",0.001 to 0.1,> 10,–
"COc1cnc(Cl)cc1-c1cc(C)ncc1C(=O)Nc1nc2ncc(N3CCC(C#N)CC3)nc2s1 [Example 475, 2′-chloro-N-(6-(4-cyanopiperidin-1-yl)thiazolo[4,5-b]pyrazin-2-yl)-5′-methoxy-6-methyl-[4,4′-bipyridine]-3-carboxamide]",0.001 to 0.1,> 10,–
"COc1cnc(Cl)cc1-c1cc(C)ncc1C(=O)Nc1nc2ncc([C@@H]3CCOC(C)(C)C3)nc2s1 (single isomer, unassigned) [Example 382, (R or S)-2′-chloro-N-(6-(2,2-dimethyltetrahydro-2H-pyran-4-yl)thiazolo[4,5-b]pyrazin-2-yl)-5′-methoxy-6-methyl-[4,4′-bipyridine]-3-carboxamide]",0.001 to 0.1,> 10,–
"COc1cnc(Cl)cc1-c1cc(C)ncc1C(=O)Nc1nc2ncc(C3=CCC(O)(C(F)F)CC3)nc2s1 (stereo not drawn) [Example 396, 2′-chloro-N-(6-(4-(difluoromethyl)-4-hydroxycyclohex-1-en-1-yl)thiazolo[4,5-b]pyrazin-2-yl)-5′-methoxy-6-methyl-[4,4′-bipyridine]-3-carboxamide]",0.001 to 0.1,> 10,–
"COc1cnc(Cl)cc1-c1cc(C)ncc1C(=O)Nc1nc2ncc(C3=CCC(O)(C(F)(F)F)CC3)nc2s1 (single isomer, unassigned) [Example 413, 2′-chloro-N-(6-(4-hydroxy-4-(trifluoromethyl)cyclohex-1-en-1-yl)thiazolo[4,5-b]pyrazin-2-yl)-5′-methoxy-6-methyl-[4,4′-bipyridine]-3-carboxamide]",0.001 to 0.1,> 10,–

# Other lines, results leading:
"IC50 (DLD1 BRCA2 (−/−) cells; Homo sapiens, DLD-1, 168 h) [µM]",IC50 (DLD1 WT cells) [µM],IC50 (DLD1 BRCA2 (−/−) cells) [µM],Compound
0.1 to 0.25,> 10,–,"COc1nnc(C(F)F)cc1-c1cc(C)ncc1C(=O)Nc1nc2ncc(-c3ccnc(C)c3)nc2s1 [Example 384, 4-(6-(difluoromethyl)-3-methoxypyridazin-4-yl)-6-methyl-N-(6-(2-methylpyridin-4-yl)thiazolo[4,5-b]pyrazin-2-yl)nicotinamide]"
0.001 to 0.1,> 10,–,"COc1cnc(Cl)cc1-c1cc(C)ncc1C(=O)Nc1nc2ncc(N3C[C@H](C)O[C@@H](C)C3)nc2s1 [Example 436, 2′-chloro-N-(6-((2S,6S)-2,6-dimethylmorpholino)thiazolo [4,5-b]pyrazin-2-yl)-5′-methoxy-6-methyl-[4,4′-bipyridine]-3-carboxamide]"
0.001 to 0.1,> 10,–,"COc1cnc(Cl)cc1-c1cc(C)ncc1C(=O)Nc1nc2ncc(N3CCN(CC(F)(F)F)CC3)nc2s1 [Example 471, 2′-chloro-5′-methoxy-6-methyl-N-(6-(4-(2,2,2-trifluoroethyl)piperazin-1-yl)thiazolo[4,5-b]pyrazin-2-yl)-[4,4′-bipyridine]-3-carboxamide]"
0.001 to 0.1,> 10,–,"COc1cnc(Cl)cc1-c1cc(C)ncc1C(=O)Nc1nc2ncc([C@@H]3CCO[C@H](C)C3)nc2s1 (single isomer, unassigned) [Example 435, 2′-chloro-5′-methoxy-6-methyl-N-(6-((2R or S,4R or S)-2-methyltetrahydro-2H-pyran-4-yl)thiazolo[4,5-b]pyrazin-2-yl)-[4,4′-bipyridine]-3-carboxamide]"
0.001 to 0.1,> 10,–,"COc1cnc(Cl)cc1-c1cc(C)ncc1C(=O)Nc1nc2ncc(C3=CCC(OC(F)F)CC3)nc2s1 (stereo not drawn) [Example 405, 2′-chloro-N-(6-(4-(difluoromethoxy)cyclohex-1-en-1-yl)thiazolo[4,5-b]pyrazin-2-yl)-5′-methoxy-6-methyl-[4,4′-bipyridine]-3-carboxamide]"
0.001 to 0.1,> 10,–,"COc1cnc(Cl)cc1-c1cc(C)ncc1C(=O)Nc1nc2ncc(C3CCOC(C)(C)C3)nc2s1 (stereo not drawn) [Example 389, 2′-chloro-N-(6-(2,2-dimethyltetrahydro-2H-pyran-4-yl)thiazolo[4,5-b]pyrazin-2-yl)-5′-methoxy-6-methyl-[4,4′-bipyridine]-3-carboxamide]"
0.001 to 0.1,5 to 7.5,–,"COc1cnc(Cl)cc1-c1cc(C)ncc1C(=O)Nc1nc2ncc(N3CCC(C(C)(C)C#N)CC3)nc2s1 [Example 468, 2′-chloro-N-(6-(4-(2-cyanopropan-2-yl)piperidin-1-yl)thiazolo[4,5-b]pyrazin-2-yl)-5′-methoxy-6-methyl-[4,4′-bipyridine]-3-carboxamide]"
0.001 to 0.1,> 10,–,"COc1cnc(Cl)cc1-c1cc(C)ncc1C(=O)Nc1nc2ncc(N3CCO[C@@H](C(F)(F)F)C3)nc2s1 [Example 440, (R)-2′-chloro-5′-methoxy-6-methyl-N-(6-(2-(trifluoromethyl)morpholino)thiazolo[4,5-b]pyrazin-2-yl)-[4,4′-bipyridine]-3-carboxamide]"
0.001 to 0.1,0.001 to 2.5,–,"COc1cnc(Cl)cc1-c1cc(C)ncc1C(=O)Nc1nc2ncc(N3CC[C@H](OC)C(F)(F)C3)nc2s1 (single isomer, unassigned) [Example 441, (S or R)-2′-chloro-N-(6-(3,3-difluoro-4-methoxypiperidin-1-yl)thiazolo[4,5-b]pyrazin-2-yl)-5′-methoxy-6-methyl-[4,4′-bipyridine]-3-carboxamide]"
0.5 to 2,7.5 to 10,–,"COc1ccccc1-c1cc(C)ncc1C(=O)Nc1nc2ccc(N3CCCCC3)cc2s1 [Example 91, 4-(2-Methoxyphenyl)-6-methyl-N-(6-(piperidin-1-yl)benzo[d]thiazol-2-yl)nicotinamide]"
0.25 to 0.5,7.5 to 10,–,"COc1cnc(Cl)cc1-c1cc(C)ncc1C(=O)Nc1nc2ncc(N3CCC[C@H](C)C3)nc2s1 [Example 481, (S)-2′-chloro-5′-methoxy-6-methyl-N-(6-(3-methylpiperidin-1-yl)thiazolo[4,5-b]pyrazin-2-yl)-[4,4′-bipyridine]-3-carboxamide]"

# — US20260015360A1 (MOMA Therapeutics, Inc., priority 2023, published 2026)
